According to patent US7981898B2, “Methods of enhancing mucosal hydration and mucosal clearance by treatment with sodium channel blockers and osmolytes” (Parion Sciences, Inc., priority 2006, dated 2011):

Tested on: Primary canine bronchial epithelia (CBE)
Assay: Gravimetric measurement of surface liquid volume on primary bronchial epithelial cultures at air-liquid interface (Assay #4)
Format: cell-based
Procedure: 4. Durability of Novel ENaC Blockers with or without Osmolytes on Airway Surface Liquid on an in vitro Cell Culture Model.
Using a gravimetric (weighing) procedure, the luminal surface liquid (mass/volume) on primary bronchial epithelial cultures grown at an air/liquid interface on permeable membrane supports (Corning) are measured, and changes in luminal surface liquid volume are recorded for up to 8 h. An applied starting volume of buffer (Krebs-Henseleit Bicarbonate Buffer Solution) with and without equimolar concentrations (0.1-100 μM) of selected novel or commercially available sodium channel blockers with or without osmolytes are added and at which point the experiment is started. The permeable supports are then reweighted at select time points and the mass/volume recorded. The data is then analyzed determining the changes in surface liquid mass/volume form beginning to the end of the 8 hour time frame.
To measure the effects of novel sodium channel blockers with or without osmotically active agents on surface liquid volume on airway surface liquid an in vitro cell culture model was used as described above, Assay #4. The effects of an ionic osmolyte, 1.5% NaCl (hypertonic saline), with or without 10 μM of compound 1 before and after adding 1.5% NaCl and compared it to isotonic buffer (vehicle) (FIG. 1) on surface liquid volume was measured over 8 hours. Using the same method (Assay #4) the effects of a non-ionic osmolyte mannitol at 4.2 and 8.4 mg/mL were compared to compound 1 and isotonic buffer (vehicle) (FIG. 2), and also by combining mannitol (4.2 and 8.4 mg/mL) with compound 1 at 1 and 10 μM (FIG. 3) on surface liquid volume was measured. The effects of compound 2 with an ionic osmolyte, 1.5% NaCl (hypertonic saline), was compared to compound 1 and hypertonic saline (1.5% NaCl), compound 1 in isotonic buffer, compound 2 in isotonic buffer, 1.5% NaCl, and isotonic buffer (vehicle) (FIG. 4) on changes in surface liquid over 8 hours. […]

## N=C(NCCCCc1ccc(OCC(O)CO)cc1)NC(=O)c1nc(Cl)c(N)nc1N (stereo not drawn) [Compound 1]
Compound 1 (10 μM) with pre or post administration of 1.5% NaCl solution, maintained for 8 hours, n=12
  volume expansion: 132+13%
Compound 1 alone at 10 μM, for over 8 hours
  inhibition of volume depletion (surface liquid volume): 74.7 ± 8.7%
Hypertonic saline (1.5% NaCl) combined with Compound 1 (10 μM)
  duration of the increase in ASL volume: over 8 h
